Experimental data from ChEMBL document CHEMBL5518248, “Design, Synthesis, and Biological Evaluation of Novel Arylomycins against Multidrug-Resistant Gram-Negative Bacteria” (J Med Chem, 2024).
≈ marks a conversion by molar mass, not a printed value. Calls of active or inactive are those of the source. The calls are words filed in the database; no cut-off is given here.

Columns and labels:
Pseudomonas aeruginosa [1] = assay: Antibacterial efficacy against multi drug resistant Pseudomonas aeruginosa T-2022-D2-048 infected in cyclophosphamide-induced neutropenic thigh infection ICR mouse model assessed as decrease in bacterial burden administered as iv dose measured after 24 hrs; assay type: functional, organism-based; conditions: dose 3-12 mg/kg
Escherichia coli [2] = assay: Antibacterial activity against Escherichia coli ATCC 35218 assessed as inhibition of bacterial growth measured after 18 to 20 hrs by broth microdilution method; assay type: functional; conditions: time 18-20 hrs
Escherichia coli [3] = assay: Antibacterial activity against Escherichia coli 14-2 assessed as inhibition of bacterial growth measured after 18 to 20 hrs by broth microdilution method; assay type: functional; conditions: time 18-20 hrs
Escherichia coli [4] = assay: Antibacterial activity against Escherichia coli 14-4 assessed as inhibition of bacterial growth measured after 18 to 20 hrs by broth microdilution method; assay type: functional; conditions: time 18-20 hrs
Klebsiella pneumoniae [5] = assay: Antibacterial activity against Klebsiella pneumoniae 15-1 assessed as inhibition of bacterial growth measured after 18 to 20 hrs by broth microdilution method; assay type: functional; conditions: time 18-20 hrs
Klebsiella pneumoniae [6] = assay: Antibacterial activity against Klebsiella pneumoniae 15-4 assessed as inhibition of bacterial growth measured after 18 to 20 hrs by broth microdilution method; assay type: functional; conditions: time 18-20 hrs
Klebsiella pneumoniae [7] = assay: Antibacterial activity against Klebsiella pneumoniae 15-5 assessed as inhibition of bacterial growth measured after 18 to 20 hrs by broth microdilution method; assay type: functional; conditions: time 18-20 hrs
Acinetobacter baumannii [8] = assay: Antibacterial activity against Acinetobacter baumannii 17-2 assessed as inhibition of bacterial growth measured after 18 to 20 hrs by broth microdilution method; assay type: functional; conditions: time 18-20 hrs
Acinetobacter baumannii [9] = assay: Antibacterial activity against Acinetobacter baumannii 17-8 assessed as inhibition of bacterial growth measured after 18 to 20 hrs by broth microdilution method; assay type: functional; conditions: time 18-20 hrs
Pseudomonas aeruginosa [10] = assay: Antibacterial activity against Pseudomonas aeruginosa 17-1 assessed as inhibition of bacterial growth measured after 18 to 20 hrs by broth microdilution method; assay type: functional; conditions: time 18-20 hrs
Pseudomonas aeruginosa [11] = assay: Antibacterial activity against Pseudomonas aeruginosa 19-5 assessed as inhibition of bacterial growth measured after 18 to 20 hrs by broth microdilution method; assay type: functional; conditions: time 18-20 hrs
HepG2 [12] = assay: Cytotoxicity against human HepG2 cells assessed as inhibition of cell growth incubated for 24 hrs by CCK8 method; assay type: functional, cell-based; conditions: HepG2, 24 h
HepG2 [13] = assay: Cytotoxicity against human HepG2 cells assessed as inhibition of cell growth at 100 uM incubated for 24 hrs by CCK8 method relative to control; assay type: functional
[14] = Cytotoxicity against HEK293T cells assessed as inhibition of cell growth incubated for 24 hrs by CCK8 method; assay type: toxicity, cell-based, HEK-293T; conditions: human
[15] = Cytotoxicity against HEK293T cells assessed as inhibition of cell growth at 100 uM incubated for 24 hrs by CCK8 method relative to control; assay type: toxicity, cell-based, HEK-293T; conditions: human
Jurkat [16] = assay: Cytotoxicity against human Jurkat cells assessed as inhibition of cell growth incubated for 24 hrs by CCK8 method; assay type: functional, cell-based
Jurkat [17] = assay: Cytotoxicity against human Jurkat cells assessed as inhibition of cell growth at 100 uM incubated for 24 hrs by CCK8 method relative to control; assay type: functional
Pseudomonas aeruginosa [18] = assay: Antibacterial activity against Pseudomonas aeruginosa T-2022 assessed as inhibition of bacterial growth measured after 18 to 20 hrs by broth microdilution method; assay type: functional; conditions: time 18-20 hrs
Pseudomonas aeruginosa [19] = assay: Antibacterial activity against multi drug resistant Pseudomonas aeruginosa T-2022-D2-048 infected in cyclophosphamide-induced neutropenic thigh infection ICR mouse model assessed as reduction in log CFU at 12 mg/kg, iv measured after 24 hrs; assay type: functional
[20] = AUC (0 to t) in Sprague-Dawley rat at 10 mg/kg, iv measured upto 24 hrs LC-MS/MS analysis; assay type: ADME, organism-based; conditions: in vivo; for AUC(0-t) at 24 h: Sprague-Dawley
[21] = AUC (0 to t) in Sprague-Dawley rat at 10 mg/kg, po measured upto 24 hrs LC-MS/MS analysis; assay type: ADME, organism-based; conditions: in vivo
[22] = Tmax in Sprague-Dawley rat at 10 mg/kg, po measured upto 24 hrs LC-MS/MS analysis; assay type: ADME, organism-based; conditions: in vivo
[23] = Cmax in Sprague-Dawley rat at 10 mg/kg, po measured upto 24 hrs LC-MS/MS analysis; assay type: ADME, organism-based; conditions: in vivo
[24] = MRT in Sprague-Dawley rat at 10 mg/kg, iv measured upto 24 hrs LC-MS/MS analysis; assay type: ADME, organism-based; conditions: in vivo
[25] = MRT in Sprague-Dawley rat at 10 mg/kg, po measured upto 24 hrs LC-MS/MS analysis; assay type: ADME, organism-based; conditions: in vivo
[26] = Half life in Sprague-Dawley rat at 10 mg/kg, iv measured upto 24 hrs LC-MS/MS analysis; assay type: ADME, organism-based; conditions: in vivo
[27] = Half life in Sprague-Dawley rat at 10 mg/kg, po measured upto 24 hrs LC-MS/MS analysis; assay type: ADME, organism-based; conditions: in vivo
[28] = Clearance in Sprague-Dawley rat at 10 mg/kg, iv measured upto 24 hrs LC-MS/MS analysis; assay type: ADME, organism-based; conditions: in vivo
[29] = Volume of distribution at steady state in Sprague-Dawley rat at 10 mg/kg, iv measured upto 24 hrs LC-MS/MS analysis; assay type: ADME, organism-based; conditions: in vivo, read-out: Vdss
[30] = Oral bioavailability in Sprague-Dawley rat at 10 mg/kg measured upto 24 hrs LC-MS/MS analysis; assay type: ADME, organism-based; conditions: in vivo
Acinetobacter baumannii [31] = assay: Antibacterial activity against Acinetobacter baumannii; assay type: functional
Pseudomonas aeruginosa [32] = assay: Antibacterial activity against Pseudomonas aeruginosa; assay type: functional

SMILES	MIC (Escherichia coli [2])	MIC (Escherichia coli [3])	MIC (Escherichia coli [4])	MIC (Klebsiella pneumoniae [5])	MIC (Klebsiella pneumoniae [6])	MIC (Klebsiella pneumoniae [7])	MIC (Acinetobacter baumannii [8])	MIC (Acinetobacter baumannii [9])	MIC (Pseudomonas aeruginosa [10])	MIC (Pseudomonas aeruginosa [11])	IC50 (HepG2 [12])	inhibition at 100 µM (HepG2 [13])	IC50 at 24 h [14]	inhibition at 24 h, 100 µM [15]	IC50 (Jurkat [16])	inhibition at 100 µM (Jurkat [17])	MRT [24]	half-life [26]	clearance [28]	Vd [29]	other results
Cc1nc(-c2ccc(CSSC(C)(C)C)cc2)ncc1C(=O)N[C@@H](CCN)C(=O)N(C)[C@@H]1C(=O)N[C@@H](C)C(=O)N[C@H](C(=O)NCC#N)Cc2ccc(OCCN)c(c2)-c2cc1ccc2OCCN [listing 1 of 2 here]																					Activity (Pseudomonas aeruginosa [1]): Dose-Dependent Effect
CSSC(C)(C)c1ccc(-c2ncc(C(=O)N[C@@H](CCN)C(=O)N(C)[C@@H]3C(=O)N[C@@H](C)C(=O)N[C@H](C(=O)NCC#N)Cc4ccc(OCCN)c(c4)-c4cc3ccc4OCCN)c(C)n2)cc1.O=C(O)C(F)(F)F.O=C(O)C(F)(F)F.O=C(O)C(F)(F)F.O=C(O)C(F)(F)F	≤ 0.03 µg/mL	≤ 0.03 µg/mL	≤ 0.03 µg/mL	≤ 0.03 µg/mL	≤ 0.03 µg/mL	≤ 0.03 µg/mL	1 µg/mL	0.25 µg/mL	8 µg/mL	8 µg/mL	> 100 µM	-12.6%	> 100 µM	48.1%	> 100 µM	39.1%					
Cc1nc(-c2ccc(CSSCC(C)C)cc2)ncc1C(=O)N[C@@H](CCN)C(=O)N(C)[C@@H]1C(=O)N[C@@H](C)C(=O)N[C@H](C(=O)NCC#N)Cc2ccc(OCCN)c(c2)-c2cc1ccc2OCCN.O=C(O)C(F)(F)F.O=C(O)C(F)(F)F.O=C(O)C(F)(F)F.O=C(O)C(F)(F)F	≤ 0.03 µg/mL	≤ 0.03 µg/mL	≤ 0.03 µg/mL	≤ 0.03 µg/mL	0.06 µg/mL	0.06 µg/mL	0.5 µg/mL	0.125 µg/mL	4 µg/mL	4 µg/mL	> 100 µM	-4.7%	> 100 µM	42.7%	> 100 µM	18.4%					
Cc1nc(-c2ccc(CSSC(C)(C)C)cc2)ncc1C(=O)N[C@@H](CCN)C(=O)N(C)[C@@H]1C(=O)N[C@@H](C)C(=O)N[C@H](C(=O)NCC#N)Cc2ccc(OCCN)c(c2)-c2cc1ccc2OCCN [listing 2 of 2 here]																	6.27 h	4.18 h	1.16 mL/min/kg	0.435 L/kg	MIC (Pseudomonas aeruginosa [18]): 4 µg/mL (≈ 4.13 µM); log CFU reduction (Pseudomonas aeruginosa [19]): 3.5 log CFU/g; AUC(0-t) at 24 h [20]: 142000 ng·h/mL; AUC(0-t) at 24 h ([21]; Sprague-Dawley): 70.1 ng·h/mL; Tmax [22]: 3.33 h; Cmax [23]: 11.5 ng/mL; MRT [25]: 5.63 h; half-life [27]: 2.83 h; bioavailability ([30]; Sprague-Dawley): 0.05%
CCCCSSCc1ccc(-c2ncc(C(=O)N[C@@H](CCN)C(=O)N(C)[C@@H]3C(=O)N[C@@H](C)C(=O)N[C@H](C(=O)NCC#N)Cc4ccc(OCCN)c(c4)-c4cc3ccc4OCCN)c(C)n2)cc1																	1.27 h	1.04 h	3.6 mL/min/kg	0.273 L/kg	AUC(0-t) at 24 h [20]: 46300 ng·h/mL
Cc1nc(-c2ccc(C(C)(C)C)cc2)ncc1C(=O)N[C@@H](CCN)C(=O)N(C)[C@@H]1C(=O)N[C@@H](C)C(=O)N[C@H](C(=O)NCC#N)Cc2ccc(OCCN)c(c2)-c2cc1ccc2OCCN.Cl.Cl.Cl.Cl	≤ 0.03 µg/mL	≤ 0.03 µg/mL	≤ 0.03 µg/mL	≤ 0.03 µg/mL	0.125 µg/mL	0.06 µg/mL	2 µg/mL	1 µg/mL	32 µg/mL	16 µg/mL	> 100 µM	-3.46%	> 100 µM	37.9%	> 100 µM	20.8%	2.62 h	1.51 h	2.71 mL/min/kg	0.423 L/kg	MIC (Pseudomonas aeruginosa [18]): 8 µg/mL; Activity (Pseudomonas aeruginosa [1]): inactive; AUCt ([20]; iv, 10 mg/kg, 24 h): 61496 ng·h/mL; AUCt ([21]; po, 10 mg/kg, 24 h): 9.01 ng·h/mL; Tmax [22]: 1.17 h; Cmax [23]: 3.37 ng/mL; MRT [25]: 2.69 h; half-life [27]: 1.56 h; F ([30]; po, 10 mg/kg, 24 h): 0.1%; MIC90 (Acinetobacter baumannii [31]): 4 µg/mL; MIC90 (Pseudomonas aeruginosa [32]): 16 µg/mL
